From patent publication US11117932B2, “Peptides for specific inhibition of Jag 1-Notch 1 pathway” (The Hong Kong Polytechnic University, priority 2018, dated 2021)
Like-named read-outs stand apart in the source and are kept apart here. Residues, ends and D or L forms follow the SMILES beside them. No end group written: not given here.

Experiments:
S1-M1-80 cells [1] = assay: cells; type: cell-based, human
Protocol: (§1) HCT-116, HCT-15, S1-M1-80, S1, L929, HEK293T-Jagged-1 were seeded in each well of a 96-well plate with a series of concentrations (a serial dilution from 1000μM to 0.5 μM) of peptides or drugs including DAPT, Topotecan at 37° C. with 5% CO2 in a humidified incubator for 3 days. Percentage of survival was determined by MTS assay as described.

in vitro = type: cell-based; details: mouse
Protocol: as §1

HEK-293T-Jagged-1 cells = type: cell-based, human
Protocol: as §1

S1 = assay: cells; type: cell-based, human
Protocol: as §1

Jag1-Notch1 signalling = assay: Co-culture Notch luciferase reporter assay, Jag1-induced; type: cell-based, human; details: peptides 25 μM
Protocol: Jag1-Notch interaction is measured using a co-culture assay with one cell line expressing the Notch ligand Jagged1 (Jag1) and a second expressing Notch (either Notch1 or Notch2). A firefly luciferase reporter plasmid with 12 upstream CBF-1 binding site was transfected into signalling-receiving cells to report on Notch signalling (FIG. 1D). Peptides were tested for their activity in inhibiting Jag1-induced Notch signalling. Complete inhibition is equivalent to the background signal seen without induction (−Jag1). […] N1 (SEQ ID NO: 10) is a 15-mer derived from the EGF-like repeat 12 of Notch1 (C467-G481). This is consistent with the structural information that EGF-like repeat 12 of Notch1 is near the MNNL domain of Jag1 (FIGS. 1B and C).
Specificity of N1 (SEQ ID NO: 10) peptide in inhibiting different Notch ligand-induced Notch signaling was investigated using in vitro co-culture assay. HEK293T or CHO cells expressing Notch ligand (either Jag1, DLL1 or DLL4) are co-cultured with Notch1- or Notch2-expressing cells. Notch1 and Notch2 signalling can be measured by either luciferase reporter assay or by the formation of NICD1 and NICD2. […] Half inhibition is reached at between 50 to 100 μM. […] This contrasts with DAPT which affects all the above interactions.
HEK-293T-Jagged-1 cells were seeded in 24-well plates in triplicate per sample group, and human HCT-116 cells were seeded in one 60 mm dish. Cells were allowed to settle, and were transfected the following day after the medium was changed to be antibiotic free. HCT-116 cells were transfected with 12×CSL-Luc and Renilla-Luc, using Lipofectamine® 3000 (Invitrogen™), according to the manufacturer's instructions. After 24 hours, HCT-116 cells were scraped and 2.5×10^4 cells in 1 mL complete medium per well were added to both 24-well plates. Peptides were treated to cells with the desired concentrations. N—[N-(3,5-difluorophenacetyl)-L-alanyl]-S-phenylglycine t-butyl ester (DAPT) was used as positive control. Cells were co-cultured for 12 hours before measure the luciferase activity. After incubation, cells were lysed with luciferase lysis buffer. Notch activity in cells expressing the 12×CSL-Luc reporter construct was measured by a luciferase assay using Dual-Luciferase® Reporter Assay System (Promega).

S1-M1-80 cells [2] = assay: Clonogenicity assay, S1-M1-80; type: cell-based, human; details: S1-M1-80, single agent 1 μM
Protocol: The procedure for colony formation assay consists of following steps. An appropriate number of cells per well were seeded on a 6-well plate in duplicate. The number of cells for seeding should be related to the aggressiveness of the treatment. The cells were incubated for 12 hours in a CO2 incubator at 37° C. and allow cells to attach to the plate. The cells were treated with peptides or (DAPT) to required concentrations. The cells were incubated in a in a CO2 incubator at 37° C. for about 10 days until cells in control well have formed colonies which are of a substantially good size (the minimum score is 100 cells per colony). After the incubation, the medium was removed and cells were rinsed with 5 ml 1×PBS (phosphate buffered saline. pH 7.2). The cells were then fixed with 1 ml methanol at room temperature for 10 min. After fixation, the cells were stained with 0.5% crystal violet solution and incubated at room temperature for 1 h. After staining, the plates were immersed in deionized water to rinse off crystal violet and air-dried at room temperature for overnight. The dry plates were pictured with scanner. The number of colonies in each well was counted by cell counter software.

IC50 (S1-M1-80 cells [1])	IC50 (S1)	Compound	also measured
14.1 ± 0.7 µM	> 50 µM	CC[C@H](C)[C@H](NC(=O)[C@H](CCC(N)=O)NC(=O)[C@H](CC(=O)O)NC(=O)[C@H](CC(C)C)NC(=O)[C@@H](N)CS)C(=O)NCC(=O)N[C@@H](CCC(=O)O)C(=O)N[C@@H](Cc1ccccc1)C(=O)N[C@@H](CCC(N)=O)C(=O)N[C@@H](CS)C(=O)N[C@H](C(=O)N[C@@H](CS)C(=O)N[C@@H](CCSC)C(=O)N1CCC[C@H]1C(=O)O)[C@@H](C)CC [Peptide N101, CLDQIGEFQCICMP] (H-CLDQIGEFQCICMP-OH; N-terminus and C-terminus assumed)	
10.2 ± 0.4 µM	> 50 µM	CC[C@H](C)[C@H](NC(=O)[C@H](CCC(N)=O)NC(=O)[C@H](CC(=O)O)NC(=O)[C@H](CC(C)C)NC(=O)[C@@H](N)CS)C(=O)NCC(=O)N[C@@H](CCC(=O)O)C(=O)N[C@@H](Cc1ccccc1)C(=O)N[C@@H](CCC(N)=O)C(=O)N[C@@H](CS)C(=O)N[C@H](C(=O)N[C@@H](CS)C(=O)N[C@@H](CCSC)C(=O)O)[C@@H](C)CC [Peptide N102, CLDQIGEFQCICM] (H-CLDQIGEFQCICM-OH; N-terminus and C-terminus assumed)	inhibition of Jag1-induced Notch signaling compared with N1 (Jag1-Notch1 signalling): stronger inhibitory effect than N1
> 50 µM	> 100 µM	CC[C@H](C)[C@H](NC(=O)[C@H](CCC(N)=O)NC(=O)[C@H](CC(=O)O)NC(=O)[C@H](CC(C)C)NC(=O)[C@@H](N)CS)C(=O)NCC(=O)N[C@@H](CCC(=O)O)C(=O)N[C@@H](Cc1ccccc1)C(=O)N[C@@H](CCC(N)=O)C(=O)N[C@@H](CS)C(=O)N[C@H](C(=O)N[C@@H](CS)C(=O)O)[C@@H](C)CC [Peptide N103, CLDQIGEFQCIC] (H-CLDQIGEFQCIC-OH; N-terminus and C-terminus assumed)	
28.4 ± 0.6 µM	> 50 µM	CC[C@H](C)[C@H](NC(=O)[C@H](CS)NC(=O)[C@H](CCC(N)=O)NC(=O)[C@H](Cc1ccccc1)NC(=O)[C@H](CCC(=O)O)NC(=O)CNC(=O)[C@@H](NC(=O)[C@H](CCC(N)=O)NC(=O)[C@H](CC(=O)O)NC(=O)[C@H](CC(C)C)NC(=O)[C@@H](N)CS)[C@@H](C)CC)C(=O)O [Peptide N104, CLDQIGEFQCI] (H-CLDQIGEFQCI-OH; N-terminus and C-terminus assumed)	inhibition of Jag1-induced Notch signaling compared with N1 (Jag1-Notch1 signalling): stronger inhibitory effect than N1
> 100 µM	> 100 µM	CC[C@H](C)[C@H](NC(=O)[C@H](CCC(N)=O)NC(=O)[C@H](CC(=O)O)NC(=O)[C@H](CC(C)C)NC(=O)[C@@H](N)CS)C(=O)NCC(=O)N[C@@H](CCC(=O)O)C(=O)N[C@@H](Cc1ccccc1)C(=O)N[C@@H](CCC(N)=O)C(=O)N[C@@H](CS)C(=O)O [Peptide N105, CLDQIGEFQC] (H-CLDQIGEFQC-OH; N-terminus and C-terminus assumed)	
> 100 µM	> 100 µM	CC(C)C[C@H](NC(=O)[C@@H](N)CS)C(=O)N[C@@H](CC(=O)O)C(=O)N[C@@H](CCC(N)=O)C(=O)O [Peptide N111, CLDQ] (H-CLDQ-OH; N-terminus and C-terminus assumed)	
> 100 µM	> 100 µM	CC[C@H](C)[C@H](N)C(=O)NCC(=O)N[C@@H](CCC(=O)O)C(=O)N[C@@H](Cc1ccccc1)C(=O)N[C@@H](CCC(N)=O)C(=O)N[C@@H](CS)C(=O)N[C@H](C(=O)N[C@@H](CS)C(=O)N[C@@H](CCSC)C(=O)N1CCC[C@H]1C(=O)NCC(=O)O)[C@@H](C)CC [Peptide N112, IGEFQCICMPG] (H-IGEFQCICMPG-OH; N-terminus and C-terminus assumed)	
> 100 µM	> 100 µM	CLDQIG [Peptide N109, CLDQIG]	
> 100 µM	> 100 µM	CLDQIGE [Peptide N108, CLDQIGE]	
> 100 µM	> 100 µM	CLDQIGEF [Peptide N107, CLDQIGEF]	
> 100 µM	> 100 µM	CLDQIGEFQ [Peptide N106, CLDQIGEFQ]	

Second part, the compound before the results:

Compound	IC50 (S1-M1-80 cells [1])	IC50 (S1)	also measured
CC[C@H](C)[C@H](NC(=O)[C@H](CCC(N)=O)NC(=O)[C@H](CC(=O)O)NC(=O)[C@H](CC(C)C)NC(=O)[C@H](CS)NC(=O)[C@@H](N)Cc1ccccc1)C(=O)NCC(=O)N[C@@H](CCC(=O)O)C(=O)N[C@@H](Cc1ccccc1)C(=O)N[C@@H](CCC(N)=O)C(=O)N[C@@H](CS)C(=O)N[C@H](C(=O)N[C@@H](CS)C(=O)N[C@@H](CCC(=O)O)C(=O)O)[C@@H](C)CC [N102T466F-M479E, FCLDQIGEFQCICE] (H-FCLDQIGEFQCICE-OH; N-terminus and C-terminus assumed)	43.9 ± 3.4 µM		IC50 at 3 days (in vitro): > 100 µM; IC50 (HEK-293T-Jagged-1 cells): > 100 µM
CC[C@H](C)[C@H](N)C(=O)N[C@@H](CS)C(=O)N[C@@H](CC(C)C)C(=O)N[C@@H](CC(=O)O)C(=O)N[C@@H](CCC(N)=O)C(=O)N[C@H](C(=O)NCC(=O)N[C@@H](CCC(=O)O)C(=O)N[C@@H](Cc1ccccc1)C(=O)N[C@@H](CCC(N)=O)C(=O)N[C@@H](CS)C(=O)N[C@H](C(=O)N[C@@H](CS)C(=O)N[C@@H](CCC(=O)O)C(=O)O)[C@@H](C)CC)[C@@H](C)CC [N102T466I-M479E, ICLDQIGEFQCICE] (H-ICLDQIGEFQCICE-OH; N-terminus and C-terminus assumed)	15.2 ± 4.2 µM		IC50 at 3 days (in vitro): > 100 µM; IC50 (HEK-293T-Jagged-1 cells): > 100 µM
CC[C@H](C)[C@H](NC(=O)[C@H](CCC(N)=O)NC(=O)[C@H](CC(=O)O)NC(=O)[C@H](CC(C)C)NC(=O)[C@H](CS)NC(=O)[C@@H](N)CC(C)C)C(=O)NCC(=O)N[C@@H](CCC(=O)O)C(=O)N[C@@H](Cc1ccccc1)C(=O)N[C@@H](CCC(N)=O)C(=O)N[C@@H](CS)C(=O)N[C@H](C(=O)N[C@@H](CS)C(=O)N[C@@H](CCC(=O)O)C(=O)O)[C@@H](C)CC [N102T466L-M479E, LCLDQIGEFQCICE] (H-LCLDQIGEFQCICE-OH; N-terminus and C-terminus assumed)	5.4 ± 1.2 µM		IC50 at 3 days (in vitro): > 100 µM; IC50 (HEK-293T-Jagged-1 cells): > 100 µM
CC[C@H](C)[C@H](NC(=O)[C@H](CCC(N)=O)NC(=O)[C@H](CC(=O)O)NC(=O)[C@H](CC(C)C)NC(=O)[C@H](CS)NC(=O)[C@@H](N)Cc1c[nH]c2ccccc12)C(=O)NCC(=O)N[C@@H](CCC(=O)O)C(=O)N[C@@H](Cc1ccccc1)C(=O)N[C@@H](CCC(N)=O)C(=O)N[C@@H](CS)C(=O)N[C@H](C(=O)N[C@@H](CS)C(=O)N[C@@H](CCC(=O)O)C(=O)O)[C@@H](C)CC [N102T466W-M479E, WCLDQIGEFQCICE] (H-WCLDQIGEFQCICE-OH; N-terminus and C-terminus assumed)	54.3 ± 5.2 µM		IC50 at 3 days (in vitro): > 100 µM; IC50 (HEK-293T-Jagged-1 cells): > 100 µM
CC[C@H](C)[C@H](NC(=O)[C@H](CS)NC(=O)[C@H](CCC(N)=O)NC(=O)[C@H](Cc1ccccc1)NC(=O)[C@H](CCC(=O)O)NC(=O)CNC(=O)[C@H](Cc1c[nH]c2ccccc12)NC(=O)[C@H](CCC(N)=O)NC(=O)[C@H](CC(=O)O)NC(=O)[C@H](CC(C)C)NC(=O)[C@@H](N)CS)C(=O)N[C@@H](CS)C(=O)N[C@@H](CCSC)C(=O)O [Peptide N102I471W, CLDQWGEFQCICM] (H-CLDQWGEFQCICM-OH; N-terminus and C-terminus assumed)	> 50 µM	> 100 µM	inhibition of Jag1-induced Notch signaling compared with N1 (Jag1-Notch1 signalling): slight improvement
CC[C@@]1(O)C(=O)OCc2c1cc1n(c2=O)Cc2cc3c(CN(C)C)c(O)ccc3nc2-1 [Topotecan, reference compound]			IC50 (S1; Homo sapiens, 72 h, S1 cells, 3 days, MTS, read-out: IC50 (μM) S1): 0.19 ± 0.05 µM; IC50 (S1-M1-80 cells [1]; Homo sapiens, 72 h, S1-M1-80 cells, 3 days, MTS, read-out: IC50 (μM) s1-m1-80): 14.9 ± 0.1 µM; colony formation (S1-M1-80 cells [2]): 1263 colonies/well
